The test system of one experiment is PDE5. The note with it: ITC, cited from earlier work. (ITC needs no label: the signal is the heat of the interaction.)
A further experiment deals with PDEs. Kind of experiment: ITC PDE assays, summary over the PDE panel. The note with it: result in words.
For a further experiment, the target named is PDE9A (Homo sapiens, UniProt O76083). Kind of experiment: PDE assay using isothermal titration calorimetry. The note with it: ITC; for Ki: compound as inhibitor of PDE9; for Km: compound as substrate.
A further experiment has as its target PDE8A (Homo sapiens, UniProt O60658). Kind of experiment: PDE assay using isothermal titration calorimetry. Conditions: ITC, compound as substrate; n.h. = not hydrolyzed.
For the next experiment, the system named is PDE1A. Conditions: ITC, compound as substrate; cited from earlier work.
The next experiment relates to PDE4D. The note with it: ITC, compound as substrate; n.h. = not hydrolyzed; cited from earlier work.
The subject of a further experiment is PDE1B. Conditions: ITC, compound as substrate; cited from earlier work.
The subject of the next experiment is PDE6. The note with it: ITC, compound as substrate, cited from earlier work.
Another experiment has as its system PDE10. Conditions: ITC, compound as substrate; cited from earlier work.
The next experiment deals with PDE1C. The note with it: ITC, compound as substrate; cited from earlier work.
A further experiment concerns PDE2A. Conditions: ITC, compound as substrate; cited from earlier work.

Sequence of PDE9A (O76083 whole entry, species assumed): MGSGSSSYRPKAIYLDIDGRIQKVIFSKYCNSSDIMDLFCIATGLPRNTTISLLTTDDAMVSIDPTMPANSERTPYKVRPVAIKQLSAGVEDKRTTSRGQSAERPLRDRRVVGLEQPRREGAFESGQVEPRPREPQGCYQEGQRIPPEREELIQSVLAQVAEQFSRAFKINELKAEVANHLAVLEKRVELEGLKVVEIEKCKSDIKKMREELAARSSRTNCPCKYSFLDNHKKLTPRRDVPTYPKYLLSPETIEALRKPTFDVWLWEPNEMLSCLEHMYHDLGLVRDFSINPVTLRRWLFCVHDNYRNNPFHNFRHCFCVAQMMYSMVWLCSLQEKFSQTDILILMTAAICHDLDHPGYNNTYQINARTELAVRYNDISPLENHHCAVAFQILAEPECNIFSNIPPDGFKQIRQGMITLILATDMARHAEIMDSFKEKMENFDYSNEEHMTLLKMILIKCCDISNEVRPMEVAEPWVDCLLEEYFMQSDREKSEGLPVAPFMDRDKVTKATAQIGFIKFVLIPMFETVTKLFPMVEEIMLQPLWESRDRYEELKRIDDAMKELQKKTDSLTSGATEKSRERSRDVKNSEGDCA
Sequence of PDE8A (O60658 whole entry, species assumed): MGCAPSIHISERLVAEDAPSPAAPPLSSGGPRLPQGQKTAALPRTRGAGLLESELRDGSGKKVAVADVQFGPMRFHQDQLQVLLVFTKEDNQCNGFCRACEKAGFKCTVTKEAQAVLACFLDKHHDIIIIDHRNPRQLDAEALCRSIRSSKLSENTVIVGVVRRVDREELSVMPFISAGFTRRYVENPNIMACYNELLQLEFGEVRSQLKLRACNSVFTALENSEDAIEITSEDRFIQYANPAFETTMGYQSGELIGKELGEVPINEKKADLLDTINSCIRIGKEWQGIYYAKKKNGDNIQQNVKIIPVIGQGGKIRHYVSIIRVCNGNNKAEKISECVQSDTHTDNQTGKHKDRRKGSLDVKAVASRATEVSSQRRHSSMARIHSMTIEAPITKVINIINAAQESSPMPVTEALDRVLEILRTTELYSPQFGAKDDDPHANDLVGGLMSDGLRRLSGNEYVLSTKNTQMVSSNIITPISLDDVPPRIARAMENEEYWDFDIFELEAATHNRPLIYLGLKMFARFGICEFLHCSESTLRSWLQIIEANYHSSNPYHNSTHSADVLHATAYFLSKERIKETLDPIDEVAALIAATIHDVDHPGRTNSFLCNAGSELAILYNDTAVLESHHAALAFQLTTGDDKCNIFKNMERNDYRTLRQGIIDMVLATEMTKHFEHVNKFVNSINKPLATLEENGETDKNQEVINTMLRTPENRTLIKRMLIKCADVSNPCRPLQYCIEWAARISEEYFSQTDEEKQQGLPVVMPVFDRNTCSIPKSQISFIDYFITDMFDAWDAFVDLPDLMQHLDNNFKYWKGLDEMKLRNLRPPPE

As for `CO[C@@H]1[C@@H]2OP(=O)(O)OC[C@H]2O[C@H]1n1c(Sc2ccc(Cl)cc2)nc2c(N)ncnc21` [8-pCPT-2-0-Me cAMP], the “substrate property for PDE5” value with PDE5 (result in words) is on record as “rather good substrate for PDE5”.
Consider `COC1C2OP(O)(=S)OCC2OC1n1c(Sc2ccc(Cl)cc2)nc2c(N)ncnc21` (stereo not shown) [Sp-8-pCPT-2-0-Me-cAMPS], for which the “substrate property for PDEs” value in the experiment on PDEs (any PDE of the panel) is “not a substrate for any PDE”. The “inhibition of PDEs” value with PDEs (several PDEs of the panel) is recorded as “quite a good inhibitor of several of them”.
For orientation: Ki means the dissociation constant of the complex between target and ligand, obtained from inhibition or displacement. With `Nc1nc2c(nc(Sc3ccc(Cl)cc3)n2C2O[C@@H]3COP(=O)(O)O[C@H]3[C@H]2O)c(=O)[nH]1` (stereo in doubt) [8-pCPT-cGMP], affinity on PDE9A was put at a Ki of 1290 nM.
A word on the Km: it is the substrate concentration at which the rate is half of its maximum. For `Nc1nc2c(nc(Br)n2[C@@H]2O[C@@H]3COP(=O)(O)O[C@H]3[C@H]2O)c(=O)[nH]1` [8-Br-cGMP], affinity at PDE9A was put at a Ki of 770 nM. In addition, on PDE8A, the Michaelis-Menten constant (Km) worked out at 0.55 µM.
The term Vmax denotes the top rate of the reaction or transport when substrate is in excess. With `Nc1nc2c(ncn2[C@@H]2O[C@@H]3COP(=O)(O)O[C@H]3[C@H]2O)c(=O)[nH]1` [cGMP], the Km on PDE9A was 0.2 µM; with PDE1A, 8.2 µM; with PDE5 (compound as substrate), 2 µM; at PDE8A, “n.h”; in the experiment with PDE4D, “n.h”; in the experiment with PDE1B, 5.4 µM. Further, the Km was 10 µM in the experiment on PDE6, 1.1 µM with PDE10, 4.6 µM in the experiment with PDE1C and 31 µM in the experiment with PDE2A. Besides, the Vmax with PDE1A is 20 ± 1.0 µM/min/mg; on PDE8A, “n.h”; in the experiment on PDE4D, “n.h”; in the experiment with PDE1B, 2.6 ± 0.7 µM/min/mg; with PDE6 (Vmax normalized, cGMP as substrate = 1) it was 1.0 +/− 1.1; in the experiment on PDE10, 1.6 ± 0.11 µM/min/mg. For the same compound, the Vmax was 1.4 ± 1.0 µM/min/mg in the experiment on PDE1C and 176 ± 31 µM/min/mg with PDE2A.
Take `Nc1ncnc2c1nc(Br)n2[C@@H]1O[C@@H]2COP(=O)(O)O[C@H]2[C@H]1O` [8Br-cAMP]: the Km at PDE9A was found to be 5.99 µM.

These data come from publication PMC4091765 (Methods in molecular biology (Clifton, N.J.), 2013).
